From patent publication US8680157B2, “Androgen receptor-dependent gene expression control” (Universitaetsklinikum Freiburg, priority 2005, dated 2014)

Legend:
[1] = target: T1, LSD1 (Homo sapiens, UniProt O60341); assay: Chromatin immunoprecipitation (ChIP) at the PSA promoter in LNCaP cells; type: cell-based
T1 construct: endogenous in cells; host or cells: LNCaP
Protocol: ChIP experiments were performed essentially as described^15. […] LNCaP cells were transfected three days before harvesting for ChIP with or without siRNA (Qiagen) following the manufacture's instructions. Immunoprecipitation was performed with specific antibodies (α-monoMeK9H3, α-diMeK9H3, α-triMeK9H3, α-monoMeK4H3, α-diMeK4H3, α-triMeK4H3, α-H3 (abcam), α-LSD1, and α-AR PG21 (Upstate Biotechnology) on GammaBind™-Sepharose 4B (GE-Healthcare). For PCR, 1-5 μl out of 50 μl DNA extract was used. For Re-ChIP assays, immunoprecipitations were sequentially washed with TSE I, TSE II, buffer III, and TE^15. Complexes were eluted by incubation with 10 mM DTT at 37° C. for 30 min, diluted 50 times with dilution buffer^15 followed by a second immunoprecipitation with the indicated antibody. Primer sequences were as follows: middle; PSA (−2223/−1951) 5′-[…]-3′ and 5′-[…]-3′; PCR primers for ARE I+II (PSA (−459/−121)) and ARE III (PSA (−4288/−3922)) have been described previously^16.

[2] = test system: LSD1-induced activation of AR; assay: Transient transfection, AR-dependent luciferase reporter with co-expressed LSD1 and AR in 293 cells; type: cell-based; conditions: R1881, 3×10^−3 M pargyline, 1×10^−3 M deprenyl or 1×10^−4 M chlorgyline, 18 hours, FIG. 4e
Protocol: 293 and CV-1 cells were cultured and transfected as described^13. LNCaP cells were cultured in phenol-red-free RPMI1640 supplemented with 10% double-stripped fetal calf serum (dsFCS) and transfected with Effectene (Qiagen). The following amounts per well were used: MMTV-LUC, ARE2x-TATA-LUC, ARE2x-TK-LUC, TK-LUC, PSA-LUC, Slp-ARU-TATA-LUC 500 ng each, 25 ng expression plasmids for AR; 500 ng expression plasmids for LSD1 1-174, LSD1 175-246, LSD1 247-852, pSUPER-control, and pSUPER-LSD1; 100 to 500 ng expression plasmids for LSD1 were transfected per well. […] Luciferase activity was assayed as described^14. All experiments were repeated at least five times in duplicate.

[3] = pargyline, R1881, FIG. 3d and data not shown

Row | SMILES | demethylation of mono- and dimethyl H3-K9 during androgen-induced transcription ([1]; PSA promoter, pargyline 18 hours, 10^−8 M R1881 210 min, FIG. 3d) | methylation levels of trimethyl H3-K9 ([1]; PSA promoter, pargyline 18 hours, R1881, FIG. 3d) | methylation status of H3-K27 [1, 3] | methylation status of H4-K20 [1, 3] | LSD1-induced ligand-dependent activation of AR (reporter activity) [2]
1 | C#CCN(C)Cc1ccccc1 [pargyline, N-methyl-N-2-propynyl-benzylamine] | blocks | remains unchanged | remains unchanged | remains unchanged | severely impair
2 | C#CCN(C)CCCOc1ccc(Cl)cc1Cl [clorgyline, N-methyl-N-propargyl-3-(2,4-dichlorophenoxy-)propylamine] |  |  |  |  | severely impair
3 | C#CCN(C)[C@H](C)Cc1ccccc1 [deprenyl, (R)-(−)-N,2-dimethyl-N-2-propynylphenethylamine] |  |  |  |  | severely impair
